The supplement of paper PMC11616607

Assays:
Test in all cases: drug sensitivity score (DSS) from 5-point dose-response viability curve (DSS (area-under-curve based score)); higher = more sensitive (stronger growth inhibition or killing); extreme values may be limits of the assay
Settings in all cases: exposure time: 72 h; concentration range: 5 concentrations over 10,000-fold range
OVCAR4 = system: OVCAR4
In short: (§1)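 Drugs in DMSO or water were acoustically dispensed (Echo 550) into 384-well plates at five concentrations across a 10,000-fold range. Ovarian cancer and normal ovarian cells (1,500 per well) were then added, incubated for 3 days at 37°C with 5% CO2, and read for viability by CellTiter-Glo luminescence on a PHERAstar FS. From these readings, Breeze software derived a drug sensitivity score per cell line and drug, with higher values meaning more sensitive and zero meaning no response.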

COV318 = system: COV318
In short: as §1

OVCAR8 = system: OVCAR8
In short: as §1

Ovsaho = system: Ovsaho
In short: as §1

HOSE2C = system: HOSE2C
In short: as §1

Kuramochi = system: Kuramochi
In short: as §1

OVCAR5 = system: OVCAR5
In short: as §1

CAOV3 = system: CAOV3
In short: as §1

HOSE1C = system: HOSE1C
In short: as §1

JHOS2 = system: JHOS2
In short: as §1

OV90 = system: OV90
In short: as §1

COV362 = system: COV362
In short: as §1

| Compound | drug sensitivity score (OVCAR4) | drug sensitivity score (COV318) | drug sensitivity score (OVCAR8) | drug sensitivity score (Ovsaho) | drug sensitivity score (HOSE2C) | drug sensitivity score (Kuramochi) | drug sensitivity score (OVCAR5) | drug sensitivity score (CAOV3) | drug sensitivity score (HOSE1C) | drug sensitivity score (JHOS2) | drug sensitivity score (OV90) | drug sensitivity score (COV362) |
| --- | --- | --- | --- | --- | --- | --- | --- | --- | --- | --- | --- | --- |
| Clc1ccccc1C(c1ccccc1)(c1ccccc1)n1cccn1 [TRAM-34] | 0 | 0 | 0 | 0 | 0 | 0 | 5 | 0 | 0 | 0 | 0 | 0 |
| CN1CCN(c2ccc(C(=O)Nc3n[nH]c4ccc(Cc5cc(F)cc(F)c5)cc34)c(NC3CCOCC3)c2)CC1 [Entrectinib] | 1 | 0 | 0 | 1.5 | 0 | 0 | 1 | 0.6 | 0.1 | 0 | 0 | 0.1 |
| CCCCOc1nc(N)c2c(n1)N(Cc1cccc(CN3CCCC3)c1)CC(=O)N2 [Vesatolimod] | 0.4 | 0 | 0 | 0 | 0 | 1 | 0 | 0 | 0 | 0 | 0 | 0 |
| CC[C@H](CC#N)OC(=O)N[C@@H](C)c1cccc(NC(=O)Nc2ccc(-c3cnco3)c(OC)c2)c1 [AVN944] | 7 | 9.4 | 11.1 | 9.5 | 15.8 | 8 | 13.6 | 10.9 | 25 | 9.6 | 12.7 | 3.3 |
| COc1ccc2[nH]cc(/C=C3\C(=O)Nc4ccc(NC(=O)CCN5CCCCC5)cc43)c2c1 | 4.9 | 5.4 | 8.8 | 4.6 | 6.1 | 5.7 | 9.4 | 6.3 | 4.8 | 5 | 11.7 | 8.7 |
| N.N.[Cl][Pt][Cl] [Cisplatin] | 10.7 | 11.7 | 5 | 15.7 | 16.4 | 11.2 | 8.8 | 16.5 | 18.3 | 4.3 | 4.8 | 3.3 |
| CC1(C)CC[C@]2(NC(=O)C(C)(F)F)CC[C@]3(C)[C@H](C(=O)C=C4[C@@]5(C)C=C(C#N)C(=O)C(C)(C)[C@@H]5CC[C@]43C)[C@@H]2C1 [Omaveloxolone] | 18.6 | 10.5 | 18.9 | 19.6 | 16.3 | 14.3 | 13.7 | 17.4 | 16.5 | 13.3 | 18.8 | 9.2 |
| CON(C)C(=O)N1N=C(c2cc(F)ccc2F)S[C@@]1(CCCN)c1ccccc1 [Filanesib] | 6.8 | 8.7 | 17.7 | 8.8 | 16.2 | 9.5 | 17.6 | 21.3 | 21.8 | 7.4 | 10.8 | 1.4 |
| COc1nc(N)nc2c1ncn2[C@@H]1O[C@H](CO)[C@@H](O)[C@@H]1O [Nelarabine] | 0 | 0 | 0 | 0 | 0 | 0 | 0 | 0 | 0 | 0 | 1.7 | 0 |
| C1=N/C2=N/c3ccc(OCCN4CCCC4)c(c3)COC/C=C/COCc3cccc(c3)C(=C1)N2 [Pacritinib] | 6.8 | 5.3 | 7.8 | 8 | 8.2 | 6.5 | 9.4 | 7.6 | 8.2 | 7.5 | 10.5 | 6.2 |
| Cc1ccc(C(=O)Nc2cccc(C(F)(F)F)c2)cc1Nc1nc(-c2cccnc2)nc2c1cnn2C [NVP-BHG712] | 1.4 | 2.8 | 4.9 | 2.9 | 2.7 | 2.5 | 8.8 | 0 | 2.2 | 2.1 | 0.1 | 5.6 |
| CNC(=O)c1nn(C)c2c1C(C)(C)Cc1cnc(Nc3ccc(N4CCN(C)CC4)cc3)nc1-2 [Milciclib] | 6.4 | 6.5 | 6.2 | 10.7 | 7.4 | 10.1 | 9.4 | 6.8 | 8.8 | 9.1 | 8.1 | 5.4 |
| CC(C)(O)CNc1nc(Nc2ccnc(C(F)(F)F)c2)nc(-c2cccc(C(F)(F)F)n2)n1 [Enasidenib] | 0 | 0 | 0.9 | 0 | 0 | 0 | 0 | 0 | 0 | 0 | 0 | 1.1 |
| C[C@@H](C(=O)O)c1ccc(-c2ccccc2)c(F)c1 [Tarenflurbil] | 0 | 0.3 | 0 | 0 | 0 | 0 | 0.3 | 0 | 0 | 0.7 | 1.3 | 0 |
| CC(C)C(=O)Nc1ccc([N+](=O)[O-])c(C(F)(F)F)c1 [Flutamide] | 0.5 | 0.2 | 0.3 | 0 | 0 | 0.7 | 0.1 | 0 | 0.2 | 0.3 | 0 | 0 |
